Measured values taken from ChEMBL document CHEMBL5335826, “Biochemical and Structural Studies of the Carminomycin 4-O-Methyltransferase DnrK” (J Nat Prod, 2024).

Columns and labels:
A549 = test: Cytotoxicity against human A549 cells assessed as reduction in cell viability incubated for 72 hrs by alamar blue assay; assay type: functional, cell-based; conditions: A549, 72 h
PC-3 = test: Cytotoxicity against human PC-3 cells assessed as reduction in cell viability incubated for 72 hrs by alamar blue assay; assay type: functional, cell-based; conditions: PC-3, 72 h

SMILES | IC50 (A549) | IC50 (PC-3)
COc1cc(O)c2c(c1)C(=O)c1cc3c(c(O)c1C2=O)[C@@H](O[C@@H]1O[C@@H](C)[C@H](OC)[C@@H](O)[C@H]1OC)[C@H](OC)[C@](C)(O)C3=O | 2800 nM | 3100 nM
COc1cccc2c1C(=O)c1c(cc3c(c1O)[C@@H](O[C@@H]1O[C@@H](C)[C@H](O)[C@@H](O)[C@H]1OC)[C@H](OC)[C@](C)(O)C3=O)C2=O | 13800 nM | 4300 nM
CO[C@H]1[C@H](O[C@@H]2c3c(cc4c(c3O)C(=O)c3c(O)cccc3C4=O)C(=O)[C@@](C)(O)[C@H]2OC)O[C@@H](C)[C@H](O)[C@H]1O [ARANCIAMYCIN] | 2700 nM | 1100 nM
CC(=O)[C@]1(O)Cc2c(O)c3c(c(O)c2[C@@H](O[C@H]2C[C@H](N)[C@H](O)[C@H](C)O2)C1)C(=O)c1c(O)cccc1C3=O [CARUBICIN] | 13.1 nM | 35 nM
COc1cccc2c1C(=O)c1c(O)c3c(c(O)c1C2=O)C[C@@](O)(C(C)=O)C[C@@H]3O[C@H]1C[C@H](N)[C@H](O)[C@H](C)O1 [DAUNORUBICIN] | 199 nM | 170 nM
